Measurements taken from patent US20240208969A1, “SUBSTITUTED FUSED BICYCLIC COMPOUNDS AS PARP INHIBITORS AND THE USE THEREOF” (IMPACT THERAPEUTICS (SHANGHAI), INC., priority 2021, published 2024).

Test system: MDA-MB-436 cells
Experiment: Inhibition of proliferation of human breast cancer MDA-MB-436 cell line (CCK-8, 7 days)
Format: cell-based
Conditions: Homo sapiens, 168 h, proliferation of MDA-MB-436, 7 days
Experimental: The cells were cultured in complete medium (DMEM medium +10% FBS+Insulin+glutathione). When the confluence reached about 80%, cells were digested and gently dispensed from the bottom of the dish with a 1 mL pipette. Cell suspension was collected and centrifuged at 500 rpm for 3 min. The supernatant was discarded, and the cell pellet were re-suspended in complete medium. The cells were seeded into a culture dish at an appropriate proportion, and then cultured in a 5% CO2 incubator at 37° C. The assay was carried out when the cells were in optimum condition and the confluence was reached 80%. Cells were harvested in the logarithmic growth phase by using 1 mL pipette gently and then centrifugated at 500 rpm for 3 min. The cells were resuspended by using refresh medium after removing the supernatant and then the cells were counted. The cells were seeded at 3000/well in a 96 well plate and incubated at 37° C. 5% CO2 incubator overnight. In the second day, cells were treated with compound at 8 serially diluted dose with 1000×final concentration in 100% DMSO. The compound was prepared as below: 1000×dilution tested compound solution to 40×test compound solution by adding 5μL, 1000×compound solution to 120 μL Medium (25-fold dilution). The solution was mixed by oscillation. DMSO was used as the control.
The medium was removed from the wells in the plate after the plate was taken out from incubator. Then, fresh medium of 195 μL/per well was added to the 96 well plate. 5μL/per well of 40×test compound solution was added into the 96 well plate. Finally, the plate was incubated for 7 days in a 37° C. 5% CO2 incubator. The medium containing compound was changed once on the fourth day. After 7 days, 20 μL of CCK-8 was added to each well and shake gently, then was cultured for 4 hours. The plate was shaken for 5 min after incubation, the absorbance values of 450 nm. and 650nm wavelengths were recorded respectively (OD=absorbance value of 450 nm−absorbance value of 650 nm) by using the multifunction readout instrument.
Data were analyzed by software GraphPad Prism 6.0. The inhibitory activity of compounds on cell proliferation was plotted using cell survival rate against the compound concentration as coordinates. Cell survival rate %=(ODcompound−ODbackground)/(ODDMSO−ODbackground)×100. The IC50 value was fitted by the s-shaped dose response curve equation: Y=100/(1+10^(log C−log IC50)), and C was the compound concentration.
Table 2 summarizes the inhibitory effect data (IC50) of the compounds on the proliferation of human breast cancer cells MDA-MB-436, wherein ++++ indicates 1<IC50≤10 nM; +++ indicates 10 nM<IC50≤100 nM; ++ indicates 100 nM<IC50≤1 μM; + indicates IC50>1 μM.

SMILES | IC50 [µM]
CCn1c(=O)[nH]c2nc(CN3CCN(c4ccc(C(=O)NC)nc4C)CC3)ccc2c1=O [Example 74, 5-(4-((3-ethyl-2,4-dioxo-1,2,3,4-tetrahydropyrido[2,3-d]pyrimidin-7-yl)methyl)piperazin-1-yl)-N,6-dimethylpicolinamide] | > 1
CCn1c(=O)[nH]c2cc(CN3CCN(c4ncc(C(=O)NC)cc4C)CC3)ccc2c1=O [Example 79, 6-(4-((3-ethyl-2,4-dioxo-1,2,3,4-tetrahydroquinazolin-7-yl)methyl)piperazin-1-yl)-N,5-dimethylnicotinamide] | > 1
CCn1c(=O)[nH]c2cc(CN3CCN(c4ccc(C(=O)NC)nc4C(C)C)CC3)ccc2c1=O [Example 80, 5-(4-((3-ethyl-2,4-dioxo-1,2,3,4-tetrahydroquinazolin-7-yl)methyl)piperazin-1-yl)-6-isopropyl-N-methylpicolinamide] | > 1
CCn1c(=O)[nH]c2cc(CN3CCN(c4ccc(C(=O)NC)nc4C)CC3)ncc2c1=O [Example 81, 5-(4-((3-ethyl-2,4-dioxo-1,2,3,4-tetrahydropyrido[4,3-d]pyrimidin-7-yl)methyl)piperazin-1-yl)-N,6-dimethylpicolinamide] | 0.01 to 0.1
CCNC(=O)c1ccc(N2CCN(Cc3cc(F)c4c(=O)n(CC)c(=O)[nH]c4c3)CC2)c(C)n1 [Example 82, N-ethyl-5-(4-((3ethyl-5-fluoro-2,4-dioxo-1,2,3,4-tetrahydroquinazolin-7-yl)methyl)piperazin-1-yl)-6-methylpicolinamide] | 0.01 to 0.1
CNC(=O)c1ccc(N2CCN(Cc3ccc4c(=O)n(CC(F)(F)F)c(=O)[nH]c4c3)CC2)c(C)n1 [Example 87, 5-(4-((2,4-dioxo-3-(2,2,2-trifluoroethyl)-1,2,3,4-tetrahydroquinazolin-7-yl)methyl)piperazin-1-yl)-N,6-dimethylpicolinamide] | > 1
CCn1c(=O)[nH]c2cc(CN3CCN(c4ccc(C(=O)NC)nc4Br)CC3)ccc2c1=O [Example 94, 6-bromo-5-(4-((3-ethyl-2,4-dioxo-1,2,3,4-tetrahydroquinazolin-7-yl)methyl)piperazin-1-yl)-N-methylpicolinamide] | 0.01 to 0.1
CCNC(=O)c1ccc(N2CCN(Cc3ccc4c(=O)n(CC)c(=O)[nH]c4c3)CC2)c(Br)n1 [Example 95, 6-bromo-N-ethyl-5-(4-((3-ethyl-2,4-dioxo-1,2,3,4-tetrahydroquinazolin-7-yl)methyl)piperazin-1-yl)picolinamide] | 0.01 to 0.1
CNC(=O)c1ccc(N2CCN(Cc3ccc4c(=O)n(C)c(=O)[nH]c4c3)CC2)c(Cl)n1 [Example 98, 6-chloro-N-methyl-5-(4-((3-methyl-2,4-dioxo-1,2,3,4-tetrahydroquinazolin-7-yl)methyl)piperazin-1-yl)picolinamide] | 0.1 to 1
CNC(=O)c1ccc(N2CCN(Cc3ccc4c(=O)n(C)c(=O)[nH]c4c3)CC2)c(C)n1 [Example 99, N,6-dimethyl-5-(4-((3-methyl-2,4-dioxo-1,2,3,4-tetrahydroquinazolin-7-yl)methyl)piperazin-1-yl)picolinamide] | 0.01 to 0.1
CCNC(=O)c1ccc(N2CCN(Cc3ccc4c(=O)n(C)c(=O)[nH]c4c3)CC2)c(Cl)n1 [Example 100, 6-chloro-N-ethyl-5-(4-((3-methyl-2,4-dioxo-1,2,3,4-tetrahydroquinazolin-7-yl)methyl)piperazin-1-yl)picolinamide] | 0.1 to 1
CCNC(=O)c1ccc(N2CCN(Cc3ccc4c(=O)n(C)c(=O)[nH]c4c3)CC2)c(C)n1 [Example 101, N-ethyl-6-methyl-5-(4-((3-methyl-2,4-dioxo-1,2,3,4-tetrahydroquinazolin-7-yl)methyl)piperazin-1-yl)picolinamide] | 0.1 to 1
CCNC(=O)c1ccc(N2CCN(Cc3cnc4c(=O)n(CC)c(=O)[nH]c4c3)CC2)c(Cl)n1 [Example 102, 6-chloro-N-ethyl-5-(4-((3-ethyl-2,4-dioxo-1,2,3,4-tetrahydropyrido[3,2-d]pyrimidin-7-yl)methyl)piperazin-1-yl)picolinamide] | 0.01 to 0.1
CCNC(=O)c1ccc(N2CCN(Cc3cnc4c(=O)n(CC)c(=O)[nH]c4c3)CC2)c(C)n1 [Example 103, N-ethyl-5-(4-((3-ethyl-2,4-dioxo-1,2,3,4-tetrahydropyrido[3,2-d]pyrimidin-7-yl)methyl)piperazin-1-yl)-6-methylpicolinamide] | 0.01 to 0.1
CNC(=O)c1ccc(N2CCN(Cc3cc(F)c4c(=O)n(C)c(=O)[nH]c4c3)CC2)c(C)n1 [Example 105, 5-(4-((5-fluoro-3-methyl-2,4-dioxo-1,2,3,4-tetrahydroquinazolin-7-yl)methyl)piperazin-1-yl)-N,6-dimethylpicolinamide] | 0.1 to 1
CCn1c(=O)[nH]c2cc(CN3CCN(c4ccc(C(=O)NC)nc4OC)CC3)cnc2c1=O [Example 109, 5-(4-((3-ethyl-2,4-dioxo-1,2,3,4-tetrahydropyrido[3,2-d]pyrimidin-7-yl)methyl)piperazin-1-yl)-6-methoxy-N-methylpicolinamide] | 0.1 to 1
CCn1c(=O)[nH]c2cc(CN3CCN(c4ccc5cc[nH]c5c4)CC3)ccc2c1=O [Example 110, 7-((4-(1H-indol-6-yl)piperazin-1-yl)methyl)-3-ethylquinazoline-2,4(1H,3H)-dione] | > 1
CCn1c(=O)[nH]c2cc(CN3CCN(c4ccc5cn[nH]c5c4)CC3)ccc2c1=O [Example 111, 7-((4-(1H-indazol-6-yl)piperazin-1-yl)methyl)-3-ethylquinazoline-2,4(1H,3H)-dione] | > 1
CCn1c(=O)[nH]c2cc(CN3CCN(c4ccc5[nH]ncc5c4)CC3)ccc2c1=O [Example 112, 7-((4-(1H-indazol-5-yl)piperazin-1-yl)methyl)-3-ethylquinazoline-2,4(1H,3H)-dione] | > 1
CCNC(=O)c1ccc(N2CCN(Cc3ccc4c(c3)NC(=O)N(CC)C4)CC2)c(Cl)n1 [Example 118, 5-(4-((3-ethyl-2-oxo-1,2,3,4-tetrahydroquinazolin-7 yl)methyl)piperazin-1-yl)-6-chloro-N-ethylpicolinamide] | 0.01 to 0.1
CCN1Cc2c(F)cc(CN3CCN(c4ccc(C(=O)NC)nc4Cl)CC3)cc2NC1=O [Example 120, 6-chloro-5-(4-((3-ethyl-5-fluoro-2-oxo-1,2,3,4-tetrahydroquinazolin-7-yl)methyl)piperazin-1-yl)-N-methylpicolinamide] | 0.01 to 0.1
CCNC(=O)c1ccc(N2CCN(Cc3cc(F)c4c(c3)NC(=O)N(CC)C4)CC2)c(C)n1 [Example 121, N-ethyl-5-(4-((3-ethyl-5-fluoro-2-oxo-1,2,3,4-tetrahydroquinazolin-7-yl)methyl)piperazin-1-yl)-6-methylpicolinamide] | 0.01 to 0.1
CCNC(=O)c1ccc(N2CCN(Cc3cc(Cl)c4c(=O)n(CC)c(=O)[nH]c4c3)CC2)c(Cl)n1 [Example 126, 6-chloro-5-(4-((5-chloro-3-ethyl-2,4-dioxo-1,2,3,4-tetrahydroquinazolin-7-yl)methyl)piperazin-1-yl)-N-ethylpicolinamide] | 0.001 to 0.01
CCn1c(=O)[nH]c2cc(CN3CCN(c4ccc(C(=O)NC5CC5)nc4Cl)CC3)cc(Cl)c2c1=O [Example 131, 6-chloro-5-(4-((5-chloro-3-ethyl-2,4-dioxo-1,2,3,4-tetrahydroquinazolin-7-yl)methyl)piperazin-1-yl)-N-cyclopropylpicolinamide] | 0.001 to 0.01
